For 38 compounds, Ki results are on record in US7291621B2, “Substituted biaryl amides C5a receptor modulators” (Neurogen Corporation, priority 2002, dated 2007).

pKi: −log10 of the molar value. Where only a bound is given, the exact number is not on record here.

For this experiment, the target named is T1, C5a receptor (Homo sapiens, UniProt P21730).
T1 construct: endogenous in cells; host or cells: U937 cells differentiated with 1 mM dibutyryl cAMP
T1 sequence (P21730 1-350): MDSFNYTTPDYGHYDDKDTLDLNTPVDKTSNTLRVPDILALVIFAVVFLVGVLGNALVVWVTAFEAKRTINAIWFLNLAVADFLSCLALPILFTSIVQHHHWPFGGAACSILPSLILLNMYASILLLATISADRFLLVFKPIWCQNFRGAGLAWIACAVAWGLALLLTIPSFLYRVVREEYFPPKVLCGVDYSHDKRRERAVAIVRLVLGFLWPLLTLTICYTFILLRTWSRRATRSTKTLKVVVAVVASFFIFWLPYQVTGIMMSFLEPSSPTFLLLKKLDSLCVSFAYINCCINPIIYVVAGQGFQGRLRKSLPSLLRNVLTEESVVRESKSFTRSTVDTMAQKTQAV
Nature of the experiment: standard assay of C5a receptor mediated calcium mobilization. In kind it is cell-based. The settings on record: Table I; asterisk = tested in C5a receptor mediated calcium mobilization assay; read-out: Ca2+ Mob. On the procedure:
U937 cells are grown in differentiation media (1 mM dibutyrl cAMP in RPMI 1640 medium containing 10% fetal bovine serum) for 48 hrs at 37° C. then reseeded onto 96-well plates suitable for use in a FLIPR™ Plate Reader (Molecular Devices Corp., Sunnyvale Calif.). Cells are grown an additional 24 hours (to 70-90% confluence) before the assay. The cells are then washed once with Krebs Ringer solution. FLUO-3 calcium sensitive dye (Molecular Probes, Inc. Eugene, Oreg.) is added to 10 μg/mL and incubated with the cells at room temperature for 1 to 2 hours. The 96 well plates are then washed to remove excess dye. Fluorescence responses, measured by excitation at 480 nm and emission at 530 nm, are monitored upon the addition of human C5a to the cells to a final concentration of 0.01-30.0 nM, using the FLIPR™ device (Molecular Devices).
The calcium mobilization assay described above may be readily adapted for identifying test compounds that have agonist or antagonist activity at the human C5a receptor.
For example, in order to identify antagonist compounds, differentiated U937 cells are washed and incubated with Fluo-3 dye as described above. One hour prior to measuring the fluorescence signal, a subset of the cells is incubated with 1 μM of at least one compound to be tested. The fluorescence response upon the subsequent addition of 0.3 nM (final concentration) human recombinant C5a is monitored using the FLIPR™ plate reader. Antagonist compounds elicit at least a 2-fold decrease in the fluorescence response relative to that measured in the presence of human C5a alone. Preferred antagonist compounds elicit at least a 5-fold, preferably at least a 10-fold, and more preferably at least a 20-fold decrease in the fluorescence response relative to that measured in the presence of human C5a alone.
In general terms: A change in cytosolic calcium serves as a functional read-out for many receptors and channels.
As for `O=C(c1ccccc1-c1ccc(F)cc1)N(Cc1ccccc1)Cc1ccccc1` [compound 34, N,N-dibenzyl4′-fluoro-1,1′-biphenyl-2-carboxamide], the pKi was over 6.00.
With `CC(=O)Nc1cccc(-c2ccccc2C(=O)N(Cc2ccccc2)Cc2ccccc2)c1` [compound 35, 3′-(acetylamino)-N,N-dibenzyl-1,1′-biphenyl-2-carboxamide] the figure was over 6.00; with `O=C(c1ccccc1-c1ccc(OC(F)(F)F)cc1)N(Cc1ccccc1)Cc1ccccc1` [compound 36, N,N-dibenzyl-4′-(trifluoromethoxy)-1,1′-biphenyl-2-carboxamide], over 6.00.
For `CSc1ccccc1-c1ccccc1C(=O)N(Cc1ccccc1)Cc1ccccc1` [compound 37, N,N-dibenzyl-2′-(methylthio)-1,1′-biphenyl-2-carboxamide] the value was over 6.00; for `CCSc1ccc(-c2ccccc2C(=O)N(Cc2ccccc2)Cc2ccccc2)cc1` [compound 38, N,N-dibenzyl-4′-(ethylthio)-1,1′-biphenyl-2-carboxamide], over 6.00.
On to `O=C(c1ccccc1-c1cccc(F)c1)N(Cc1ccccc1)Cc1ccccc1` [compound 39, N,N-dibenzyl-3′-fluoro-1,1′-biphenyl-2-carboxamide], for which the pKi is over 6.00.
For `Cc1ccc(-c2ccccc2C(=O)N(Cc2ccccc2)Cc2ccccc2)cc1C` [compound 40, N,N-dibenzyl-3′,4′-dimethyl-1,1′-biphenyl-2-carboxamide] the value was over 6.00; for `O=C(c1ccccc1-c1ccsc1)N(Cc1ccccc1)Cc1ccccc1` [compound 41, N,N-dibenzyl-2-thien-3-ylbenzamide], over 6.00; for `O=C(c1ccccc1-c1ccc(C(F)(F)F)cc1)N(Cc1ccccc1)Cc1ccccc1` [compound 42, N,N-dibenzyl-4′-(trifluoromethyl)-1,1′-biphenyl-2-carboxamide], over 6.00.
For `COc1ccccc1-c1ccccc1C(=O)N(Cc1ccccc1)Cc1ccccc1` [compound 43, N,N-dibenzyl-2′-methoxy-1,1′-biphenyl-2-carboxamide] the value was over 6.00; for `COc1ccc(-c2ccccc2C(=O)N(Cc2ccccc2)Cc2ccccc2)cc1` [compound 44, N,N-dibenzyl-4′-methoxy-1,1′-biphenyl-2-carboxamide], over 6.00.
Take `COc1ccc(-c2ccccc2C(=O)N(Cc2ccccc2)Cc2ccccc2)c(OC)c1` [compound 45, N,N-dibenzyl-2′,4′-dimethoxy-1,1′-biphenyl-2-carboxamide]: the pKi was over 6.00.
As to `COc1ccc(-c2ccccc2C(=O)N(Cc2ccccc2)Cc2ccccc2)cc1OC` [compound 46, N,N-dibenzyl-3′,4 ′-dimethoxy-1,1′-biphenyl-2-carboxamide], the pKi was over 6.00.
In the case of `O=C(c1ccccc1-c1ccccc1)N(Cc1ccccc1)Cc1ccccc1` [compound 47, N,N-dibenzyl-1,1′-biphenyl-2-carboxamide], the pKi is over 6.00.
`O=C(c1ccccc1-c1ccccc1Cl)N(Cc1ccccc1)Cc1ccccc1` [compound 48, N,N-dibenzyl-2′-chloro-1,1′-biphenyl-2-carboxamide]: the pKi is over 6.00.
For `O=C(c1ccccc1-c1cccc(Cl)c1)N(Cc1ccccc1)Cc1ccccc1` [compound 49, N,N-dibenzyl-3′-chloro-1,1′-biphenyl-2-carboxamide] the value was over 6.00; for `O=C(c1ccccc1-c1ccc(Cl)cc1)N(Cc1ccccc1)Cc1ccccc1` [compound 50, N,N-dibenzyl-4′-chloro-1,1′-biphenyl-2-carboxamide], over 6.00.
With `O=C(c1ccccc1-c1cccc(Cl)c1Cl)N(Cc1ccccc1)Cc1ccccc1` [compound 51, N,N-dibenzyl-2′,3′-dichloro-1,1′-biphenyl-2-carboxamide] the figure was over 6.00.
With `O=C(c1ccccc1-c1ccc(Cl)cc1Cl)N(Cc1ccccc1)Cc1ccccc1` [compound 52, N,N-dibenzyl-2′,4′-dichloro-1,1′-biphenyl-2-carboxamide] the figure was over 6.00; with `Cc1ccccc1-c1ccccc1C(=O)N(Cc1ccccc1)Cc1ccccc1` [compound 53, N,N-dibenzyl-2′-methyl-1,1′-biphenyl-2-carboxamide], over 6.00.
On to `Cc1cccc(-c2ccccc2C(=O)N(Cc2ccccc2)Cc2ccccc2)c1` [compound 54, N,N-dibenzyl-3′-methyl-1,1′-biphenyl-2-carboxamide], for which the pKi was over 6.00.
With `Cc1ccc(-c2ccccc2C(=O)N(Cc2ccccc2)Cc2ccccc2)cc1` [compound 55, N,N-dibenzyl-4′-methyl-1,1′-biphenyl-2-carboxamide], the pKi is over 6.00.
For `O=C(c1ccccc1-c1cc(Cl)cc(Cl)c1)N(Cc1ccccc1)Cc1ccccc1` [compound 56, N,N-dibenzyl-3′,5′-dichloro-1,1′-biphenyl-2-carboxamide], the pKi is over 6.00.
For `Cc1ccc(-c2ccccc2C(=O)N(Cc2ccccc2)C2Cc3ccccc3C2)cc1` [compound 58, N-benzyl-N-(indan-2-yl)4′-methyl-1,1′-biphenyl-2-carboxamide] the value was over 6.00; for `Cc1csc(-c2ccccc2C(=O)N(Cc2ccccc2)C2Cc3ccccc3C2)c1` [compound 59, N-benzyl-N-(indan-2-yl)-2-(4-methylthien-2-yl)benzamide], over 6.00; for `O=C(c1ccccc1-c1ccccc1)N(Cc1ccccc1)C1Cc2ccccc2C1` [compound 60, N-benzyl-N-(indan-2-yl)-1,1′-biphenyl-2-carboxamide], over 6.00.
For `O=C(c1ccccc1-c1ccccc1F)N(Cc1ccccc1)C1CCc2ccccc21` (centres unmarked) [compound 61, N-benzyl-N-(indan-1-yl)-2′-fluoro-1,1′-biphenyl-2-carboxamide], the pKi is over 6.00.
As to `COc1cccc(-c2ccccc2C(=O)N(Cc2ccccc2)C2Cc3ccccc3C2)c1` [compound 62, N-benzyl-N-(indan-2-yl)-3′-methoxy-1,1′-biphenyl-2-carboxamide], the pKi was over 6.00.
For `O=C(c1ccccc1-c1cccs1)N(Cc1ccccc1)C1Cc2ccccc2C1` [compound 63, N-benzyl-N-(indan-2-yl)-2-thien-2-ylbenzamide] the value was over 6.00; for `COc1cccc(-c2ccccc2C(=O)N(Cc2ccc3c(c2)OCO3)C2Cc3ccccc3C2)c1` [compound 64, N-(1,3-benzodioxol-5-ylmethyl)-N-(indan-2-yl)-3′-methoxy-1,1′-biphenyl-2-carboxamide], over 6.00.
With `O=C(c1cccc2c1-c1ccccc1C2)N(Cc1ccc2c(c1)OCO2)C1Cc2ccccc2C1` [compound 65, N-(1,3-benzodioxol-5-ylmethyl)-N-(indan-2-yl)-9H-fluorene-4-carboxamide] the figure was over 6.00; with `COc1ccc(-c2ccccc2)c(C(=O)N(Cc2ccccc2)C2Cc3ccccc3C2)c1` [compound 66, N-benzyl-N-(indan-2-yl)-4-methoxy-1,1′-biphenyl-2-carboxamide], over 6.00.
Turning to `COc1cccc(-c2ccccc2)c1C(=O)N(Cc1ccccc1)C1Cc2ccccc2C1` [compound 67, N-benzyl-N-(indan-2-yl)-3-methoxy-1,1′-biphenyl-2-carboxamide], the pKi was over 6.00.
For `O=C(c1cc(O)ccc1-c1ccccc1)N(Cc1ccccc1)C1Cc2ccccc2C1` [compound 68, N-benzyl-N-(indan-2-yl)-4-hydroxy-1,1′-biphenyl-2-carboxamide] the value was over 6.00.
For `O=C(c1c(O)cccc1-c1ccccc1)N(Cc1ccccc1)C1Cc2ccccc2C1` [compound 69, N-benzyl-N-(indan-2-yl)-3-hydroxy-1,1′-biphenyl-2-carboxamide], the pKi was over 6.00.
For `COc1ccc(-c2ccc(C)s2)c(C(=O)N(Cc2ccccc2)C2Cc3ccccc3C2)c1` [compound 70, N-benzyl-N-(indan-2-yl)-5-methoxy-2-(5-methylthien-2-yl)benzamide], the pKi is over 6.00.
Consider `COc1ccc2c(c1)CC(N(Cc1ccccc1)C(=O)c1ccccc1-c1ccccc1)C2` (centres unmarked) [compound 71, N-benzyl-N-(5-methoxy-indan-2-yl)-1,1′-biphenyl-2-carboxamide], for which the pKi was over 6.00.
As to `Cc1ccc2c(c1)CC(N(Cc1ccccc1)C(=O)c1ccccc1-c1ccccc1)C2` (centres unmarked) [compound 72, N-benzyl-N-(5-methyl-indan-2-yl)-1,1′-biphenyl-2-carboxamide], the pKi is over 6.00.
